Measured values taken from ChEMBL document CHEMBL1201862, “PubChem BioAssay data set” (2004).
Activity calls are given as the source filed them.

Tests used:
[1] = test system: Streptococcus sp. 'group A'; test: Streptococcus pyogenes SK(-)GAS viability under kanamycin – luminescence, BacTiterGlo, confirmation, counter-screen for streptokinase expression inhibitor project, dose response (AID 1900); format: functional, organism-based
[2] = biological target: Heat shock protein HSP 90-alpha (Homo sapiens, UniProt P07900); format: functional, organism-based
[3] = test system: Streptococcus; test: GAS UMAA2166 growth inhibition – luminescence, BacTiterGlo, counter-screen for streptokinase expression inhibitor project, dose response (AID 1915); format: functional, organism-based;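 further: potency for reduction of bacterial viability or growth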
[4] = biological target: T1, Rac GTPase-activating protein 1 (Homo sapiens, UniProt Q9H0H5); test: blockers of MgcRacGAP-driven Rac1 GTP hydrolysis – biochemical, ADP Hunter fluorescence, primary and confirmatory, confirmation (AID 624330); format: functional
T1 sequence (Q9H0H5 whole entry): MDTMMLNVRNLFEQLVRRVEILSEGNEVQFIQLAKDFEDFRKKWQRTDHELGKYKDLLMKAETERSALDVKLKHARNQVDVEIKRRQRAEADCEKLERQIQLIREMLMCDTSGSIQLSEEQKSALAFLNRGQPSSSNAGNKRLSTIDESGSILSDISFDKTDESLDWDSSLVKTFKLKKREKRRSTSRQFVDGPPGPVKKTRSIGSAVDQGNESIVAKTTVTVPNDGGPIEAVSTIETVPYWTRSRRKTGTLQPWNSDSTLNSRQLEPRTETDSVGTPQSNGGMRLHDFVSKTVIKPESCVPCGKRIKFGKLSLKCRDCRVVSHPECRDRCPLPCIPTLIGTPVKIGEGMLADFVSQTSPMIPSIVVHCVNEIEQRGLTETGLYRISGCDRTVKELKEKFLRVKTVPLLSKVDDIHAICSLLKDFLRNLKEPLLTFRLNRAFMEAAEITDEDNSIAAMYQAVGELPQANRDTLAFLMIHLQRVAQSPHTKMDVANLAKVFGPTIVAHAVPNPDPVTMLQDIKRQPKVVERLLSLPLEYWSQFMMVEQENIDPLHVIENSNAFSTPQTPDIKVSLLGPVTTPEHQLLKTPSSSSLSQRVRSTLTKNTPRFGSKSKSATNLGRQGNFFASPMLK

[5] = viability loss in HeLa cells – cytotoxicity control for MgcRacGAP inhibitor project, dose response (AID 624300); format: functional
[6] = biological target: T2, DNA repair and recombination protein RAD54-like (Homo sapiens, UniProt Q92698); test: RAD54 Holliday junction migration blockers – biochemical, fluorescence, cherry-picked samples, dose series, confirmation (AID 651657); format: functional
T2 sequence (Q92698 whole entry): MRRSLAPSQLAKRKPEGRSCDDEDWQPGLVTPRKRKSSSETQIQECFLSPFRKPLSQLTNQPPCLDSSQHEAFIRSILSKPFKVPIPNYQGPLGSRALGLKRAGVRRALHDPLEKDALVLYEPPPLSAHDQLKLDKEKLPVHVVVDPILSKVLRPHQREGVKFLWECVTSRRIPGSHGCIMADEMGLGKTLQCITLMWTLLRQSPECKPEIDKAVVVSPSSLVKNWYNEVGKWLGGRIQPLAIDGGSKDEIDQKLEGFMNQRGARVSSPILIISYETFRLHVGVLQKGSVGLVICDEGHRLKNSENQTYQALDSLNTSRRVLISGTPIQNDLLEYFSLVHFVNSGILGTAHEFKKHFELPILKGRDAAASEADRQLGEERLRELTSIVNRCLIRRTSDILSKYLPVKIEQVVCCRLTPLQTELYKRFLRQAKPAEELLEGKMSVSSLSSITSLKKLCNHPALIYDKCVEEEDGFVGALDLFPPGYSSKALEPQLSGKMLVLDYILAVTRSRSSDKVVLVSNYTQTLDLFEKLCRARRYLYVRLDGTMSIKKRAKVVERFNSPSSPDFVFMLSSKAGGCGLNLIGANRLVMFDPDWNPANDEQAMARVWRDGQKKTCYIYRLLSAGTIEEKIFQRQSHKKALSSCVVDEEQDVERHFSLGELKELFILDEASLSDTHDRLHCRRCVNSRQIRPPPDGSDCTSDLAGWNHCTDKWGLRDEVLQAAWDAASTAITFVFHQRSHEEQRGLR

[7] = blockers of bursicon-stimulated LGR2 cAMP reporter – cell-based, HEK293, CRE-luciferase reporter, cherry pick, set 2, dose response (AID 743343); format: functional;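 further: transfected cells were stimulated with diluted bursicon conditioned medium after compound addition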
[8] = viability loss in HEK293 cells – cell-based, plate reader, cherry-picked samples, cytotoxicity control, dose response (AID 743446); format: functional
[9] = toxicity toward HepG2 liver cells – cell-based, plate reader, cherry-pick, antagonist series, cytotoxicity control, dose response (AID 743416); format: functional
[10] = blockade of melanocortin 4 receptor signaling – cell-based, plate reader, cherry pick, counter-screen for LGR2 antagonist project, dose response (AID 743444); format: functional;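 further: transfected HEK 293 cells stimulated with alpha-MSH peptide; potency of inhibitors of the alpha-MSH evoked signal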
[11] = test system: HEK293; test: EBV LMP1 TES2 canonical NF-kB signalling blockers – cell-based, HEK293, luciferase, cherry-pick, dose response (AID 588343); format: functional; details: Homo sapiens
[12] = biological target: T3, Endoribonuclease toxin MazF (Escherichia coli K-12, UniProt P0AE70); test: substrate-only fluorescence increase artefacts – biochemical, single-stranded RNase substrate, counter-screen for MazEF activator project, dose response (AID 588502); format: functional
T3 sequence (P0AE70 whole entry): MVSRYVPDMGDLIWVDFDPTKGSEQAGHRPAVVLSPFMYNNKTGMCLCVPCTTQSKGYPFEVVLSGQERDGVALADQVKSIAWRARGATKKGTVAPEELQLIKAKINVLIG

[13] = biological target: T3, Endoribonuclease toxin MazF; test: activation of MazEF endoribonuclease cleavage – biochemical, fluorescence, single-stranded RNA substrate, uHTS hits, dose response (AID 588481); format: functional
[14] = HIV-1 Vif–A3G interaction blockers – biochemical, TR-FRET, GST-Vif 1-94, biotin-A3G peptide, dose response retest, primary screen (AID 1117319); format: functional;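 further: TR-FRET signal of purified GST-Vif binding a biotinylated A3G peptide; inhibitors lower the FRET signal by blocking Vif and A3G binding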
[15] = biological target: T4, Zinc finger protein mex-5 (Caenorhabditis elegans, UniProt Q9XUB2); test: potency of MEX-5 RNA-binding blockers – biochemical, C. elegans, fluorescence polarization, dose response (AID 1960)
T4 sequence (Q9XUB2 whole entry): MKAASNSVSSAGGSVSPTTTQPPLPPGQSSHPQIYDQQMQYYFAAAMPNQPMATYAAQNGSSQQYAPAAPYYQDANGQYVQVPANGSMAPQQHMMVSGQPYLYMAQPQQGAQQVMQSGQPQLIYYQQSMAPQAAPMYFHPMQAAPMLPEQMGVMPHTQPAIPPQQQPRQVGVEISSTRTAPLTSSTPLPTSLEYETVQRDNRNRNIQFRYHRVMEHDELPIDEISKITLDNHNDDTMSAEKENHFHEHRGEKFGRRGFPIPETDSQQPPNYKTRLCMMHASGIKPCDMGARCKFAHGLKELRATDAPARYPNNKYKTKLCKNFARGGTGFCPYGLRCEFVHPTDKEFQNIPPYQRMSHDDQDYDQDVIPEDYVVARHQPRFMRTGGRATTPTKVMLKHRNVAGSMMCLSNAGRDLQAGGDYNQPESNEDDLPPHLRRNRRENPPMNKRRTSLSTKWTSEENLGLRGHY

[16] = biological target: T5, RNA-binding protein pos-1 (Caenorhabditis elegans, UniProt G5EF15); test: disruptors of C. elegans POS-1 RNA interaction – biochemical, fluorescence polarization, dose response (AID 1964);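 further: purified POS-1 fused to maltose binding protein made in E. coli; potency of compounds blocking POS-1 binding to fluorescent RNA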
T5 sequence (G5EF15 whole entry): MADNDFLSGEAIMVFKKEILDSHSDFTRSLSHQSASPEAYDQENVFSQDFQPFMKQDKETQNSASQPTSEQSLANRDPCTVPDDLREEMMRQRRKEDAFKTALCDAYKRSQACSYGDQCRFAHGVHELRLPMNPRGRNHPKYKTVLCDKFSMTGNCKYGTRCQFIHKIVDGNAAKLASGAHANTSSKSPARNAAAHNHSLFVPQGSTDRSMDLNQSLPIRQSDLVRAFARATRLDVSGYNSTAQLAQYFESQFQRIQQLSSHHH

[17] = biological target: Genome polyprotein (dengue virus type 2, UniProt P29990); test: flavivirus cap methylation enzyme inhibition – biochemical, confirmation dose response, primary screen (AID 588689); format: functional
Genome polyprotein, sequence (P29990 2492-3391 limits assumed): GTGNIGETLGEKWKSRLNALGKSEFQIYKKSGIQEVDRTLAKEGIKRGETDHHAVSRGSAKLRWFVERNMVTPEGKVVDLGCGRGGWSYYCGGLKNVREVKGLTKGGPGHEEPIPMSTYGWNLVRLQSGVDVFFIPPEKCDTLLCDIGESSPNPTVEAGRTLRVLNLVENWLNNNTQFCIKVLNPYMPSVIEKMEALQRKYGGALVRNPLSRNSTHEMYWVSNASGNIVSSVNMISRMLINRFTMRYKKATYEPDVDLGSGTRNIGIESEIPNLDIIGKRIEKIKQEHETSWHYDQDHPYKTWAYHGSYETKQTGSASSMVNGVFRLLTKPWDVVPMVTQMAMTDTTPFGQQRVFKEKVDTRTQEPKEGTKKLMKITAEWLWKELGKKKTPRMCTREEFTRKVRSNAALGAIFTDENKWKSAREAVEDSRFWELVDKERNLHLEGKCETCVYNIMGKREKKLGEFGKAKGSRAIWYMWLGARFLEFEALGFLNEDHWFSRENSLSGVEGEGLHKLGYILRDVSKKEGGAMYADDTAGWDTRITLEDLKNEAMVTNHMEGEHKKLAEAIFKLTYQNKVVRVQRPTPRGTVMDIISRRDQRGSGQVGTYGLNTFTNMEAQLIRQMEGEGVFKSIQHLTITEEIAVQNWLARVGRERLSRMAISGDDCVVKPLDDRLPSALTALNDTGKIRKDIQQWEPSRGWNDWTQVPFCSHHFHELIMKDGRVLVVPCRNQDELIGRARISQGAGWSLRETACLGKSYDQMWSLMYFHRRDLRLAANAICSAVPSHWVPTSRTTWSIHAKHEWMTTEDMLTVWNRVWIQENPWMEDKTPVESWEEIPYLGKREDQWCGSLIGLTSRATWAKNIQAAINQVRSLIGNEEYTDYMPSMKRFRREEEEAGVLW

O=C(Nc1nc(-c2ccccn2)cs1)c1ncc(Cl)c(Cl)c1Cl
EC50 [1]: 0.39 µM (active) | AC50 [2]: 3.55 µM (active) | EC50 [3]: 1.64 µM (active)

Clc1ccc(OCCOCCNCc2ccccc2)cc1Cl
IC50 [4]: 149 µM (active) | CC50 [5]: 91.9 µM (active)

OC1CCCN(Cc2c3ccccc3cc3ccccc23)C1 (stereo unspecified)
AC50 [6]: 4.09 µM (active)

O=C(Nc1ccccc1)c1cn2ccccc2n1
AC50 [7]: 6.06 µM (active) | AC50 [8]: 48.4 µM (active) | AC50 [9]: > 52 µM (inactive) | AC50 [10]: 6.74 µM (active) | AC50 [11]: 3.47 µM (active)

COc1cc2nc3c(O)n(CCN4CCCCC4)cnc-3c2cc1OC
AC50 [6]: 36.3 µM (active)

NC(=O)c1ccc(-n2nnnc2SCC(=O)Nc2ccccc2F)cc1
EC50 [12]: > 99 µM (inactive) | EC50 [13]: > 99 µM (inactive)

CC(C)C(NC(N)=O)C(=O)NC1CCCCC1 (stereo unspecified)
IC50 [14]: > 100 µM (active)

Cn1c(C(=O)NCCCN2CCOCC2)cc2c(=O)n(C)c3ccccc3c21
EC50 [15]: > 300 µM (not active) | AC50 [6]: 26.1 µM (active) | EC50 [16]: > 300 µM (not active)

O=C1C(=Cc2cccn2-c2ccc(O)cc2)C(=O)c2ccccc21
EC50 [12]: 50.3 µM (inactive) | EC50 [13]: > 99 µM (inactive) | IC50 [17]: 10.1 µM (active)
